What all share (experiment): DSF 100 kinase selectivity screen;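 also: compound tested at 20 µM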
What all share (type): binding

Test [1] has as its target T1, ~100 representative kinases (Homo sapiens, UniProt Q9UEE5).
T1 construct: Recombinant protein kinase domains with a concentration of 2 μM
T1 sequence (Q9UEE5 1-414): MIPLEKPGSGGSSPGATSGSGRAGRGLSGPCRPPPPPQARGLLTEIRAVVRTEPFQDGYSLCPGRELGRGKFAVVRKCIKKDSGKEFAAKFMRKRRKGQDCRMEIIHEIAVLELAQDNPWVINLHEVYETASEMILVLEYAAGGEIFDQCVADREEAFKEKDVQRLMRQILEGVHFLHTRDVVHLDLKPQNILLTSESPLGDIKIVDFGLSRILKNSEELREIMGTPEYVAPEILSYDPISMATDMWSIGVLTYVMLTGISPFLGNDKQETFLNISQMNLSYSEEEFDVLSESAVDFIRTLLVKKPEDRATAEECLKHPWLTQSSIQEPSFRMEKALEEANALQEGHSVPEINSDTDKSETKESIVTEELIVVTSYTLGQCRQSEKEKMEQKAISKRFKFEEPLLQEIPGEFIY
The settings on record: Protein STK17A; DSF; average of three replicates. In a few lines: (§1)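 Each kinase domain, at 2 μM, is mixed with 20 μM test compound and SYPRO Orange in Hepes (20 mM, pH 7.5) with 500 mM NaCl. Temperature is then raised at 3°C/min and fluorescence-monitored unfolding yields the melting temperature change, ΔTm in degrees Celsius.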

The target in test [2] is T2, ~100 representative kinases (Homo sapiens, UniProt P51955).
T2 construct: Recombinant protein kinase domains with a concentration of 2 μM
T2 sequence (P51955 1-445): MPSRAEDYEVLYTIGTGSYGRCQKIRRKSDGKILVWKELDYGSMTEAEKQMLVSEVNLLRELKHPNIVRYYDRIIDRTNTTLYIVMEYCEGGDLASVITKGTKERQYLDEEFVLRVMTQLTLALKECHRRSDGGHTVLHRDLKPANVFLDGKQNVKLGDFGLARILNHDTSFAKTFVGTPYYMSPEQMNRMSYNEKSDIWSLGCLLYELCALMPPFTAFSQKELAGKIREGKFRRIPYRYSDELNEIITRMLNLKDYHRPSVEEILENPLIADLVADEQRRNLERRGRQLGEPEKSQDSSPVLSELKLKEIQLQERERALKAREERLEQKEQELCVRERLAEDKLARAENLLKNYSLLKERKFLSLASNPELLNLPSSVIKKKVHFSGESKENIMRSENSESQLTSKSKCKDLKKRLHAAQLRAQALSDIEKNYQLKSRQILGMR
To be noted: protein NEK2; average of three replicates. The procedure, abridged: as §1

For test [3], the target named is T3, ~100 representative kinases (Homo sapiens, UniProt Q00536).
T3 construct: Recombinant protein kinase domains with a concentration of 2 μM
T3 sequence (Q00536 whole entry, the tested form may be a part): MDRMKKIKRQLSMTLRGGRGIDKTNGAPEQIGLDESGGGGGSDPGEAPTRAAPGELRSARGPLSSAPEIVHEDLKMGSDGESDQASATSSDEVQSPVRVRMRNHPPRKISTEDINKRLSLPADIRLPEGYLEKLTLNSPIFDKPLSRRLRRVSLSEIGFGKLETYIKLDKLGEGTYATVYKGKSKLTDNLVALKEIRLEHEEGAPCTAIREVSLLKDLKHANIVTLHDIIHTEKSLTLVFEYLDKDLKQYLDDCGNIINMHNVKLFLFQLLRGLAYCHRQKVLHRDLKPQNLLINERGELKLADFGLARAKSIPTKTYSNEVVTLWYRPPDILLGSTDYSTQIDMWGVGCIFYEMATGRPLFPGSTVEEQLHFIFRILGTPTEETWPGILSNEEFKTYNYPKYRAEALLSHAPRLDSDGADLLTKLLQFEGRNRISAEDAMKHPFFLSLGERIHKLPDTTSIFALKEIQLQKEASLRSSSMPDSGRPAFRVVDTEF
The procedure, abridged: as §1

In test [4] the target is T4, ~100 representative kinases (Homo sapiens, UniProt Q8IU85).
T4 construct: Recombinant protein kinase domains with a concentration of 2 μM
T4 sequence (Q8IU85 whole entry, the tested form may be a part): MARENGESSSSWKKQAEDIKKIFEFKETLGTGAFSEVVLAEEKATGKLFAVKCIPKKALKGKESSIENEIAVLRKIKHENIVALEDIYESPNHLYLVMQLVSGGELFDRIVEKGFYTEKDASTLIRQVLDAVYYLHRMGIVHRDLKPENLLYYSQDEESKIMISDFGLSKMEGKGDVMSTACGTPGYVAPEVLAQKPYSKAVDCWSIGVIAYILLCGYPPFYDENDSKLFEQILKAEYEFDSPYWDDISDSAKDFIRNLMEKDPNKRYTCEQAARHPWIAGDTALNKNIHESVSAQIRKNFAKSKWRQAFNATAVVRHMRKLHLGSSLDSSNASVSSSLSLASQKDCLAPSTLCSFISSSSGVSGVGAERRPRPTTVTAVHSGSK
The settings on record: Protein CAMK1D; average of three replicates. The procedure, abridged:
as §1

Test [5] addresses T5, ~100 representative kinases (Homo sapiens, UniProt Q9P289).
T5 construct: Recombinant protein kinase domains with a concentration of 2 μM
The settings on record: protein MST4; average of three replicates. The procedure, abridged:
as §1

Test [6] deals with T6, ~100 representative kinases (Homo sapiens, UniProt Q15375).
T6 construct: Recombinant protein kinase domains with a concentration of 2 μM
T6 sequence (Q15375 28-998): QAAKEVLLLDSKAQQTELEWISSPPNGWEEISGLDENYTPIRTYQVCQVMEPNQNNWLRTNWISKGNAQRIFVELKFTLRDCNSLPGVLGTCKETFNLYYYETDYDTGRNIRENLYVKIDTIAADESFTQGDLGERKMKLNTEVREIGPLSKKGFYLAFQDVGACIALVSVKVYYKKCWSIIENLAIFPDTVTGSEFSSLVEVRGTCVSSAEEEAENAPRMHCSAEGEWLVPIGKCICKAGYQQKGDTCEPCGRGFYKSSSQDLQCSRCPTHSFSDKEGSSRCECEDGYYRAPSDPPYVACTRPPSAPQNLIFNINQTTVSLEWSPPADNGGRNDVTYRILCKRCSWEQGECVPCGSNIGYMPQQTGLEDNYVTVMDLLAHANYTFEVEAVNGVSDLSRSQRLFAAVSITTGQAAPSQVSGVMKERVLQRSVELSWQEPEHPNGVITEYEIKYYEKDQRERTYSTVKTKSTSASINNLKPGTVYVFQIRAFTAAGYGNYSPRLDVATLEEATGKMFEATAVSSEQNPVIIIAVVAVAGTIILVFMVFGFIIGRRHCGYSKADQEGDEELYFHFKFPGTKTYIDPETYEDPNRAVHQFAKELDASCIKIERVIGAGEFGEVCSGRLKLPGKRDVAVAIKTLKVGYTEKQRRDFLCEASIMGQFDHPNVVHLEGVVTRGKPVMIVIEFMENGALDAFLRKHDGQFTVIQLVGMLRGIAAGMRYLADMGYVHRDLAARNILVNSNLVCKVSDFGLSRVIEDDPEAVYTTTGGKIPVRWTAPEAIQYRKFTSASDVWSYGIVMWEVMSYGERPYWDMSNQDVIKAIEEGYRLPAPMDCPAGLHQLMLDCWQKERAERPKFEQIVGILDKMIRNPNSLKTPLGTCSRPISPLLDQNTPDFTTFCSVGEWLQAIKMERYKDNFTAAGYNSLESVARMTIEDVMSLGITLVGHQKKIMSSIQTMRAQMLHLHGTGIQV
To be noted: Protein EPHA7; average of three replicates. The procedure, abridged: as §1

Test [7] has as its target T7, ~100 representative kinases (Homo sapiens, UniProt O14936).
T7 construct: Recombinant protein kinase domains with a concentration of 2 μM
T7 sequence (O14936 1-926): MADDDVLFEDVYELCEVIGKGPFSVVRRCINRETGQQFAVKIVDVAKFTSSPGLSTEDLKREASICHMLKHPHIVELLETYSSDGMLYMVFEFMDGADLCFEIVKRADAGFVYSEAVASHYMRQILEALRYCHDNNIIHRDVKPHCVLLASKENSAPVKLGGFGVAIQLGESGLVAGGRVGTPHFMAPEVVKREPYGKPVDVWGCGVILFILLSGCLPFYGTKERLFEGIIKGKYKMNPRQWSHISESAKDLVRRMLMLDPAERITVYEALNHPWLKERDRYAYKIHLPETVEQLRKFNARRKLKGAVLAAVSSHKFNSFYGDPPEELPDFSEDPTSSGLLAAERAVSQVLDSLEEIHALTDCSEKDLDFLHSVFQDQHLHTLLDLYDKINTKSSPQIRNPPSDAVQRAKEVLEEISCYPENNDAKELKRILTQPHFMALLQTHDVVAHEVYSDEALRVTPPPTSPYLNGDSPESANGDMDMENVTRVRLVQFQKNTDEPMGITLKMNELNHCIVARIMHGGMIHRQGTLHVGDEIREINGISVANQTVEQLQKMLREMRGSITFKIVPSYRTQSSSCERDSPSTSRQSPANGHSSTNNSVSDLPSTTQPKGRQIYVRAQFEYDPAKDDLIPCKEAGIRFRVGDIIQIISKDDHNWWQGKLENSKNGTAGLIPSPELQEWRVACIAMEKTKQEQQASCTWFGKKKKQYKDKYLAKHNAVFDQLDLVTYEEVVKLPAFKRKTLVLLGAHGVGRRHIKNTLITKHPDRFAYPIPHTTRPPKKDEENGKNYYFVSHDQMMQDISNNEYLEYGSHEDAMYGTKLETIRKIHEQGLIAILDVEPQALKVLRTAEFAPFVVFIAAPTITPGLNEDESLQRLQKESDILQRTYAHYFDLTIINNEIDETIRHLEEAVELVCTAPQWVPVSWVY
The settings on record: Protein CASK; average of three replicates. In a few lines: as §1

The mark [8] stands for this setting: protein PCTK1, average of three replicates.

Data on 15 compounds can be found in PMC12136037, “Type II kinase inhibitors that target Parkinson’s disease–associated LRRK2” (Science Advances, 2025).

Read-outs that look alike come from different tables or passages of the source.

T5 sequence (Q9P289 whole entry, the tested form may be a part): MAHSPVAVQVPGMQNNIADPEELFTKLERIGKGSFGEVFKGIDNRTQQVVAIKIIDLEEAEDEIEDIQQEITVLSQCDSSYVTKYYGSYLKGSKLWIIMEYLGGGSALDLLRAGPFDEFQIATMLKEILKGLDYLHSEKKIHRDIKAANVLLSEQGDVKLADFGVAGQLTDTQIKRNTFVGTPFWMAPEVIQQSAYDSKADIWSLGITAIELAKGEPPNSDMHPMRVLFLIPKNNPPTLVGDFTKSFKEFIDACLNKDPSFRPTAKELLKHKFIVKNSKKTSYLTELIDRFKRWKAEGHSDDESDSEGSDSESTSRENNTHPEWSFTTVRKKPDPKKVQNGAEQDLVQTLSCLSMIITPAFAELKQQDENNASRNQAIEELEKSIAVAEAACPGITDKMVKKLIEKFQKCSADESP

With `CC(C)(C)c1cc(NC(=O)Nc2cccc(-c3c[nH]c4ncnc(N5CCOCC5)c34)c2)n(-c2ccc3ncccc3c2)n1` [Compound 28], the dTm in test [1] worked out at 4.48 K; in test [2], 2.21 K; in test [3] (setting [8]), 15.55 K; in test [4], 2.13 K; in test [5], 6.29 K; in test [6] it was 1.92 K. The dTm in test [7] came out at 0.70 K.

Turning to `COc1cc(C(=O)N2CCOCC2)c(F)cc1Nc1nc(N(C)C)c2c(Cl)c[nH]c2n1` [Compound 36], the dTm in test [1] is listed as 0.25 K; in test [2], -0.68 K; in test [3] (setting [8]), 0.43 K; in test [4], 1.95 K; in test [5], -3.37 K; in test [6], 2.27 K. In test [7], this compound had a dTm of -0.72 K.

Take `COc1cc2c(Oc3ccc(NC(=O)C4(C(=O)Nc5ccc(F)cc5)CC4)cc3F)ccnc2cc1OCCCN1CCOCC1` [Foretinib, reference compound]: the dTm in test [1] is on record as -0.14 K; in test [2] it was 1.91 K; in test [3] it was 4.52 K; in test [4] it was 0.45 K; in test [5], 3.65 K; in test [6], -0.16 K. In addition, the dTm in test [7] came out at 0.53 K.

Turning to `Cc1ccc(-n2nc(C(C)(C)C)cc2NC(=O)Nc2cccc(-c3c[nH]c4nc(Cl)nc(N5CCOCC5)c34)c2)cc1` [Compound 30], the dTm is reported as 0.28 K in test [1]; -0.71 K in test [2]; 3.37 K in test [3] (setting [8]); -0.23 K in test [4]; -1.63 K in test [5]; 0.22 K in test [6]. Also, the dTm in test [7] is -0.47 K.

As to `CC(C)(C)c1cccc(NC(=O)C2(C(=O)Nc3cccc(-c4c[nH]c5ncnc(N6CCOCC6)c45)c3)CC2)c1` [Compound 22], the dTm is listed as -0.64 K in test [1]; 0.62 K in test [2]; 4.90 K in test [3] (setting [8]); 3.02 K in test [4]; 4.41 K in test [5]; 2.40 K in test [6]. The compound further returned a dTm in test [7] of 1.08 K.

As for `COc1ccc(NC(=O)C2(C(=O)Nc3cccc(-c4c[nH]c5ncnc(N6CCOCC6)c45)c3)CC2)cc1` [Compound 16], the dTm in test [1] is -0.48 K; in test [2] it was 2.18 K; in test [3] (setting [8]), 5.58 K; in test [4] it was -1.41 K; in test [5], 1.30 K; in test [6], -2.77 K. Moreover, the dTm in test [7] came to 0.15 K.

On to `CC(=O)N1CCN(c2nc(Cl)nc3[nH]cc(-c4cccc(NC(=O)Nc5cc(C(C)(C)C)nn5-c5ccc(C)cc5)c4)c23)CC1` [Compound 31], for which the dTm in test [1] is -0.15 K; in test [2] it was -1.71 K; in test [3] (setting [8]) it was 5.50 K; in test [4], -0.11 K; in test [5], -1.15 K; in test [6], 0.34 K. In addition, the dTm in test [7] is listed as -2.83 K.

As for `Cc1cc(NC(=O)C2(C(=O)Nc3ccc(F)cc3)CC2)cc(-c2c[nH]c3ncnc(N4CCOCC4)c23)c1` [Compound 6], the dTm in test [1] worked out at 0.40 K; in test [2] it was 0.05 K; in test [3] (setting [8]), 1.12 K; in test [4], 1.65 K; in test [5], 3.15 K; in test [6], 1.69 K. The compound further yielded a dTm in test [7] of 0.76 K.

Regarding `O=C(Nc1cccc(-c2c[nH]c3ncnc(N4CCOCC4)c23)c1)C1(C(=O)Nc2ccc(F)c(Br)c2F)CC1` [Compound 26], the dTm was -0.52 K in test [1]; -4.02 K in test [2]; -1.22 K in test [3] (setting [8]); 2.09 K in test [4]; 1.39 K in test [5]; 1.95 K in test [6]. Moreover, the dTm in test [7] is 1.04 K.

On to `O=C(Nc1cccc(-c2c[nH]c3ncnc(N4CCOCC4)c23)c1)C1(C(=O)Nc2cccc3c2CCC3)CC1` [Compound 11], for which the dTm in test [1] was 1.27 K; in test [2], -1.56 K; in test [3] (setting [8]) it was 3.50 K; in test [4], 1.59 K; in test [5] it was 0.22 K; in test [6], 1.36 K. Further, the dTm in test [7] was -5.15 K.

For the compound `C[C@@H]1CN(c2cc(-c3n[nH]c4ccc(OC5(C)CC5)cc34)ncn2)C[C@H](C)O1` [MLi2], the dTm in test [1] is reported as -0.26 K; in test [2], -0.21 K; in test [3] (setting [8]), -0.14 K; in test [4] it was 2.16 K; in test [5] it was -0.41 K; in test [6], 0.12 K. In addition, the dTm in test [7] was 0.19 K.

Consider `O=C(Nc1ccc(F)cc1)C1(C(=O)Nc2cccc(-c3c[nH]c4ncnc(N5CCOCC5)c34)c2)CC1` [Compound 2], for which the dTm in test [1] is listed as 0.36 K; in test [2] it was 0.52 K; in test [3] (setting [8]), 5.80 K; in test [4], -1.26 K; in test [5] it was 5.41 K; in test [6] it was -1.78 K. In test [7], this compound showed a dTm of 0.30 K.

As for `CCSc1nc(NC)c2c(-c3cccc(NC(=O)Nc4cc(C(C)(C)C)nn4-c4ccc(C)cc4)c3)c[nH]c2n1` [Compound 32], the dTm in test [1] was -0.0646 K; in test [2], 0.87 K; in test [3] (setting [8]), 3.77 K; in test [4], 0.45 K; in test [5] it was -2.75 K; in test [6] it was 0.38 K. The dTm in test [7] is reported as -0.26 K.

For the compound `O=C(Nc1cccc(-c2c[nH]c3ncnc(N4CCOCC4)c23)c1)C1(C(=O)Nc2ccc(F)c(Br)c2)CC1` [Compound 19], the dTm is given as 2.37 K in test [1]; -0.29 K in test [2]; 4.12 K in test [3] (setting [8]); 3.06 K in test [4]; 6.31 K in test [5]; 2.85 K in test [6]. In addition, the dTm in test [7] was determined as 1.26 K.

In the case of `COc1cc(NC(=O)C2(C(=O)Nc3cccc(-c4c[nH]c5ncnc(N6CCOCC6)c45)c3)CC2)ccc1F` [Compound 21], the dTm is 0.20 K in test [1]; 1.38 K in test [2]; 6.37 K in test [3] (setting [8]); -0.74 K in test [4]; 6.10 K in test [5]; -1.98 K in test [6]. The dTm in test [7] is given as 0.09 K.
